Patent publication US20040241860A1, “Method of breeding glyphosate resistant plants” (Advanta Technology Limited, priority 1998, published 2004)

What was measured:
Format in all cases: in vivo, corn
[1] = test system: heterozygous resistant plants (Rr, Glyphosate-resistance event GA21); test: Foliar glyphosate spray of putative heterozygous resistant plants, plant mortality (Example 1)
Text: (§1) Progeny of a cross between a homozygous resistant plant (RR) and a homozygous susceptible plant (rr) were planted at the Garst Research Centre near Slater, Iowa, and at the Hawaii Research Centre near Kunia, Hi. It was expected that none of the progeny would segregate for resistance to foliar applications of glyphosate. To test this, the progeny growing at the IA test site were sprayed with glyphosate at a rate of 64 oz per acre during the V5 and V6 stages of growth (26 days after planting). At the same time and rate, several plants in a row of known susceptible plants were sprayed. All of the sprayed plots were examined for plant mortality 7 days after spraying. As expected, all of the susceptible check plants were dead and while all of the putative heterozygous resistant plants were alive (Table 1).
(§2) A second application of 32oz per acre was applied to the heterozyous resistant plants at the V7 to V8 stage of growth (9 days later). These plants comprised the “Sprayed” class in subsequent experiments. In HI, none of the plants were sprayed with glyphosate and these plants comprised the “Unsprayed” class in subsequent experiments. At both locations, crosses were made between the heterozygous resistant plants and homozygous susceptible plants.

[2] = test system: homozygous susceptible plants (rr); test: Foliar glyphosate spray of known susceptible check plants, plant mortality (Example 1)
Text: as §1

[3] = test system: progeny of crosses between heterozygous resistant plants and homozygous susceptible plants; test: Evaluation of progeny from Sprayed and Unsprayed classes: counts of resistant and susceptible plants after glyphosate spray (Example 2); conditions: progeny sprayed 64 oz per acre V3-V4, counted ten days post-application
Text: as §2
Progeny of the crosses from each class were planted at the HI location. All progeny plants from each class were sprayed with glyphosate at a rate of 64 oz per acre during the V3 to V4 stages of growth. Ten days post-application, counts of resistant and susceptible plants were made for each class. The expected segregation, 1:1 resistant to susceptible, was compared to the observed segregation for each class (Table 2).

[4] = progeny of Unsprayed class (parents not sprayed), 182 plants

## O=C(O)CNCP(=O)(O)O [glyphosate]
[1]; class Heterozygous Resistant, 64 oz per acre at V5 and V6 stages (26 days after planting), examined 7 days after spraying
  Observed Segregation: All Resistant
[1]; putative heterozygous resistant plants, 64 oz per acre, V5 and V6, 7 days after spraying
  plant mortality: alive
[2]; class Homozygous Susceptible, 64 oz per acre at the same time and rate, examined 7 days after spraying
  Observed Segregation: All Susceptible
[2]; susceptible check plants, 64 oz per acre, 7 days after spraying
  plant mortality: dead
[3]; progeny of Sprayed class (parents 64 oz per acre V5-V6 plus 32 oz per acre V7-V8), 504 plants
  Observed Segregation: Resistant plants: 504
[3]; [4]
  Observed Segregation: Resistant plants: 100
  Observed Segregation: Susceptible plants: 82
